Converted amounts (≈) assume the structure as drawn.
Experiments:
Salmonella typhi = experiment: Antibacterial activity against clinical isolate of Salmonella typhi incubated for 18 to 24 hrs by micro-dilution method; format: functional, Salmonella enterica subsp. enterica serovar Typhi; settings: Salmonella enterica
[1] = Hemolytic activity in human RBC at 100 uM measured after 1 hr by UV-vis absorbance method relative to control; format: ADME, cell-based, Erythrocyte; settings: red blood cells (RBC), read-out: Activity
Staphylococcus aureus [2] = experiment: Antibacterial activity against Staphylococcus aureus ATCC 25923 incubated for 18 to 24 hrs by micro-dilution method; format: functional
Plesiomonas shigelloides [3] = experiment: Potency index, ratio of MIC for ciprofloxacin to MIC for test compound for antibacterial activity against Plesiomonas shigelloides ATCC 14029; format: functional
Plesiomonas shigelloides [4] = experiment: Antibacterial activity against Plesiomonas shigelloides ATCC 14029 incubated for 18 to 24 hrs by micro-dilution method; format: functional
Escherichia coli [5] = experiment: Potency index, ratio of MIC for ciprofloxacin to MIC for test compound for antibacterial activity against Escherichia coli ATCC 25922; format: functional
Salmonella typhimurium = experiment: Antibacterial activity against clinical isolate of Salmonella typhimurium incubated for 18 to 24 hrs by micro-dilution method; format: functional, Salmonella enterica subsp. enterica serovar Typhimurium; settings: Salmonella enterica
Pseudomonas aeruginosa [6] = experiment: Antibacterial activity against Pseudomonas aeruginosa ATCC 27853 incubated for 18 to 24 hrs by micro-dilution method; format: functional
[7] = tested on: Sphingomonas paucimobilis; experiment: Antibacterial activity against Sphingomonas paucimobilis MTCC 6362 incubated for 18 to 24 hrs by micro-dilution method; format: functional
[8] = tested on: Staphylococcus epidermidis; experiment: Potency index, ratio of MIC for ciprofloxacin to MIC for test compound for antibacterial activity against Staphylococcus epidermidis ATCC 35984; format: functional, RP62A
Pseudomonas aeruginosa [9] = experiment: Antibacterial activity against clinical isolate of Pseudomonas aeruginosa incubated for 18 to 24 hrs by micro-dilution method; format: functional
Escherichia coli [10] = experiment: Antibacterial activity against Escherichia coli ATCC 25922 incubated for 18 to 24 hrs by micro-dilution method; format: functional
[11] = tested on: Staphylococcus epidermidis; experiment: Antibacterial activity against Staphylococcus epidermidis ATCC 35984 incubated for 18 to 24 hrs by micro-dilution method; format: functional; settings: RP62A
[12] = Antibacterial activity against Aeromonas hydrophila ATCC 7966 incubated for 18 to 24 hrs by micro-dilution method; format: functional, Aeromonas hydrophila subsp. hydrophila ATCC 7966
Staphylococcus aureus [13] = experiment: Potency index, ratio of MIC for ciprofloxacin to MIC for test compound for antibacterial activity against Staphylococcus aureus ATCC 25923; format: functional
Enterococcus faecalis [14] = experiment: Antibacterial activity against clinical isolate of Enterococcus faecalis incubated for 18 to 24 hrs by micro-dilution method; format: functional
Enterococcus faecalis [15] = experiment: Potency index, ratio of MIC for ciprofloxacin to MIC for test compound for antibacterial activity against clinical isolate of Enterococcus faecalis; format: functional

SMILES	MIC (Salmonella typhi) [µM]	hemolysis at 1 h, 100 µM [1] [%]	MIC (Staphylococcus aureus [2]) [µM]	Ratio (Plesiomonas shigelloides [3])	MIC (Plesiomonas shigelloides [4]) [µM]	Ratio (Escherichia coli [5])	MIC (Salmonella typhimurium) [µM]	MIC (Pseudomonas aeruginosa [6]) [µM]	MIC [7] [µM]	Ratio [8]	MIC (Pseudomonas aeruginosa [9]) [µM]	MIC (Escherichia coli [10]) [µM]	MIC [11] [µM]	MIC [12] [µM]	Ratio (Staphylococcus aureus [13])	MIC (Enterococcus faecalis [14]) [µM]	Ratio (Enterococcus faecalis [15])
O=C(OCc1cn(-c2cccc(Cl)c2)nn1)c1cn(C2CC2)c2cc(N3CCN(Cc4cn(-c5cccc(Cl)c5)nn4)CC3)c(F)cc2c1=O	140 (≈ 100 µg/mL)	24.2	1.09 (≈ 0.779 µg/mL)	8 - 17	1.09 (≈ 0.779 µg/mL)	8 - 17	17.5 (≈ 12.5 µg/mL)	17.5 (≈ 12.5 µg/mL)	17.5 (≈ 12.5 µg/mL)	8 - 17	35 (≈ 25 µg/mL)	1.09 (≈ 0.779 µg/mL)	1.09 (≈ 0.779 µg/mL)	35 (≈ 25 µg/mL)	8 - 17	8.75 (≈ 6.25 µg/mL)	
CC(=O)c1ccc(-n2cc(COC(=O)c3cn(C4CC4)c4cc(N5CCN(Cc6cn(-c7ccc(C(C)=O)cc7)nn6)CC5)c(F)cc4c3=O)nn2)cc1		8.05	2.14 (≈ 1.56 µg/mL)		2.14 (≈ 1.56 µg/mL)		8.56 (≈ 6.25 µg/mL)	4.28 (≈ 3.12 µg/mL)	17.1 (≈ 12.5 µg/mL)		8.56 (≈ 6.25 µg/mL)	2.14 (≈ 1.56 µg/mL)	2.14 (≈ 1.56 µg/mL)	8.56 (≈ 6.25 µg/mL)		4.28 (≈ 3.12 µg/mL)	
O=C(OCc1cn(-c2ccc(OC(F)(F)F)cc2)nn1)c1cn(C2CC2)c2cc(N3CCN(Cc4cn(-c5ccc(OC(F)(F)F)cc5)nn4)CC3)c(F)cc2c1=O	30.7 (≈ 25 µg/mL)	9.75	3.84 (≈ 3.12 µg/mL)		15.4 (≈ 12.5 µg/mL)		3.84 (≈ 3.12 µg/mL)	3.84 (≈ 3.12 µg/mL)	15.4 (≈ 12.5 µg/mL)		15.4 (≈ 12.5 µg/mL)	3.84 (≈ 3.12 µg/mL)	1.92 (≈ 1.56 µg/mL)	3.84 (≈ 3.12 µg/mL)		0.96 (≈ 0.781 µg/mL)	19
O=C(OCc1cn(-c2ccc([N+](=O)[O-])cc2)nn1)c1cn(C2CC2)c2cc(N3CCN(Cc4cn(-c5ccc([N+](=O)[O-])cc5)nn4)CC3)c(F)cc2c1=O		5.61	4.25 (≈ 3.13 µg/mL)		4.25 (≈ 3.13 µg/mL)		17 (≈ 12.5 µg/mL)	8.5 (≈ 6.25 µg/mL)	17 (≈ 12.5 µg/mL)		17 (≈ 12.5 µg/mL)	4.25 (≈ 3.13 µg/mL)	1.06 (≈ 0.78 µg/mL)	17 (≈ 12.5 µg/mL)		8.5 (≈ 6.25 µg/mL)	
C#CCOC(=O)c1cn(C2CC2)c2cc(N3CCN(CC#C)CC3)c(F)cc2c1=O	30.7 (≈ 12.5 µg/mL)	4.57	1.92 (≈ 0.782 µg/mL)	5 - 10	1.92 (≈ 0.782 µg/mL)	5 - 10	7.67 (≈ 3.13 µg/mL)	7.67 (≈ 3.13 µg/mL)	30.7 (≈ 12.5 µg/mL)	5 - 10	15.3 (≈ 6.25 µg/mL)	1.92 (≈ 0.782 µg/mL)	1.92 (≈ 0.782 µg/mL)	61.4 (≈ 25 µg/mL)	5 - 10	30.7 (≈ 12.5 µg/mL)	
CCc1ccc(-n2cc(COC(=O)c3cn(C4CC4)c4cc(N5CCN(Cc6cn(-c7ccc(CC)cc7)nn6)CC5)c(F)cc4c3=O)nn2)cc1	142 (≈ 100 µg/mL)	6.81	142 (≈ 100 µg/mL)		4.45 (≈ 3.12 µg/mL)		8.91 (≈ 6.25 µg/mL)	> 142	> 142		> 142	> 142	71.2 (≈ 50 µg/mL)	> 142		142 (≈ 100 µg/mL)	
COc1ccccc1-n1cc(COC(=O)c2cn(C3CC3)c3cc(N4CCN(Cc5cn(-c6ccccc6OC)nn5)CC4)c(F)cc3c2=O)nn1	35.4 (≈ 25 µg/mL)	7.65	35.4 (≈ 25 µg/mL)		4.43 (≈ 3.13 µg/mL)		4.43 (≈ 3.13 µg/mL)	17.7 (≈ 12.5 µg/mL)	4.43 (≈ 3.13 µg/mL)		35.4 (≈ 25 µg/mL)	8.86 (≈ 6.25 µg/mL)	35.4 (≈ 25 µg/mL)	70.8 (≈ 50 µg/mL)		35.4 (≈ 25 µg/mL)	
O=C(OCc1cn(-c2ccc(Br)cc2)nn1)c1cn(C2CC2)c2cc(N3CCN(Cc4cn(-c5ccc(Br)cc5)nn4)CC3)c(F)cc2c1=O	7.78 (≈ 6.25 µg/mL)	1.46	1.94 (≈ 1.56 µg/mL)		3.89 (≈ 3.13 µg/mL)		15.6 (≈ 12.5 µg/mL)	15.6 (≈ 12.5 µg/mL)	15.6 (≈ 12.5 µg/mL)		15.6 (≈ 12.5 µg/mL)	7.78 (≈ 6.25 µg/mL)	3.89 (≈ 3.13 µg/mL)	31.1 (≈ 25 µg/mL)		15.6 (≈ 12.5 µg/mL)	
O=C(OCc1cn(-c2ccc(Cl)cc2Cl)nn1)c1cn(C2CC2)c2cc(N3CCN(Cc4cn(-c5ccc(Cl)cc5Cl)nn4)CC3)c(F)cc2c1=O	7.98 (≈ 6.25 µg/mL)	18.2	3.99 (≈ 3.13 µg/mL)		7.98 (≈ 6.25 µg/mL)		15.9 (≈ 12.5 µg/mL)	15.9 (≈ 12.5 µg/mL)	15.9 (≈ 12.5 µg/mL)		7.98 (≈ 6.25 µg/mL)	> 128	3.99 (≈ 3.13 µg/mL)	7.98 (≈ 6.25 µg/mL)		15.9 (≈ 12.5 µg/mL)	
Cc1cc(C)cc(-n2cc(COC(=O)c3cn(C4CC4)c4cc(N5CCN(Cc6cn(-c7cc(C)cc(C)c7)nn6)CC5)c(F)cc4c3=O)nn2)c1	> 142	8.79	71.2 (≈ 50 µg/mL)		8.91 (≈ 6.25 µg/mL)		> 142	> 142	> 142		> 142	142 (≈ 100 µg/mL)	142 (≈ 100 µg/mL)	> 142		> 142	
